Assay results as given in patent US4698354A, “4-methoxy-isophthalic acid derivative having a pharmacological activity in thromboembolic disorders” (Societa Italo-Brittanica L. Manetti-H. Roberts & Co., priority 1986, dated 1987).

What was measured:
[1] = test system: production of thromboxane B2 (TxB2); experiment: Production of thromboxane B2 (TxB2) in human PRP after stimulation with collagen; assay type: cell-based; conditions: collagen 1 μg/ml, TxB2 measured in ug/ml
Description: In order to investigate the mechanism of action of G619 the production of malondialdehyde (MDA) and thromboxane B2 (TxB2) after stimulation with collagen 1 μg/ml was measured on human PRP.

[2] = test system: production of 6-keto-PGFla; experiment: Production of 6-keto-PGFla in human PRP after stimulation with collagen; assay type: cell-based; conditions: collagen 1 ug/ml
Description: The production of 6-keto-PGFla was also measured after stimulation of human PRP with collagen 1 ug/ml.

[3] = test system: platelet aggregation induced with ADP; experiment: Blood platelet anti-aggregant activity in vitro on human PRP, ADP; assay type: cell-based; conditions: for IC50: Platelet, ADP, human PRP, ten minutes incubation at 37° C., read-out: IC50 (50% decrease of maximum amplitude of aggregation curve)
Description: (§1) The blood platelet anti-aggregant activity of G619 was studied in comparison with picotamide on human platelet rich plasma (PRP), wherein the platelet aggregation was induced with ADP, collagen, AANa and U46619 after incubation at 37° C. for ten minutes with the compounds under test. The results, indicated as a concentration able to decrease by 50% (IC50) the maximum amplitude of the aggregation curve obtained with control plasma incubated only with the buffer, are the following: […]

[4] = test system: Blood platelet aggregation from ADP; experiment: Blood platelet anti-aggregate activity in vitro, ADP-induced aggregation, rabbit PRP; assay type: cell-based; conditions: Oryctolagus cuniculus, 10 min, 10 minutes incubation at 37° C., read-out: IC50 (50% decrease of maximum amplitude of aggregation curve)
Excerpt: (§2) The compound object of the present invention has been tested to ascertain the acute toxicity, bio-disponibility and interference with the blood platelet function in vitro and in vivo by carrying out tests in all cases in comparison with another molecule, picotamide monohydrate, which is included in the same class of products, and the pharmacological activity of which is already known (see German patent 3113150).
(§3) Platelet aggregation was induced in rabbit "platelet rich plasma" (PRP) by employing as aggregant agents adenosine diphosphate (ADP) and arachidonic acid (AANa) after incubation at 37° C. for 10 minutes with the compounds under test. The activity is expressed as the concentration able to decrease by 50% (IC50) the maximum amplitude (AM) of the aggregation curve so obtained, with respect to the aggregation curve as obtained with control plasmas incubated only with buffers.
(§4) The results of the tests effected with ADP and AANa are hereinafter referred: […]

[5] = Acute toxicity (DL50), mouse; conditions: in vivo, sole administration, seven days observation
Excerpt: as §2
(§5) The compound of the present invention was subjected to acute toxicity tests on two animal species and two administration routes. The animals which are treated per os or endovenously in a sole administration, have been held under observation for seven days after treatment by recording the symptomatology and the number of deaths. The results, referred in the following table, are indicated as the dose which produces the death of 50% of the treated animals (DL50) calculated by statistical method: […]

[6] = test system: platelet aggregation induced with collagen; experiment: Blood platelet anti-aggregant activity in vitro on human PRP, collagen; assay type: cell-based; conditions: ten minutes incubation at 37° C., read-out: IC50 (50% decrease of maximum amplitude of aggregation curve)
Description: as §1

[7] = test system: platelet aggregation induced by arachidonic acid; experiment: Blood platelet anti-aggregant activity in vivo (arachidonic acid-induced aggregation in PRP of treated rabbits); parameters: species or system New Zealand rabbits; conditions: for ED50: Oryctolagus cuniculus, Platelet, 0.5 h, rabbit, gum acacia suspension, blood taken 30 minutes after treatment, arachidonic acid, read-out: ID50 (dose decreasing by 50% the maximum amplitude of the aggregation curve)
Excerpt: as §2
New Zealand rabbits which had been held fasting for twelve hours with water ad libitum, were administered with G 619 and picotamide monohydrate at various dosages in a gum acacia suspension. To the control rabbits only gum acacia was administered. After 30 minutes from treatment the animals were anaesthetized with sodium pentothal (30 mg/Kg i.v.) and blood was taken from the carotid artery, rendered incoagulable with sodium citrate at 3,8% and centrifuged at 1400 rpm for 15 minutes in order to obtain the platelet rich plasma (PRP). On said PRP the platelet aggregation was induced by arachidonic acid and the corresponding aggregation curve was recorded using a Born aggregometer. The activity is indicated as the dose able to decrease by 50% (ID50) the maximum amplitude (AM) of the aggregation curve of plasma of treated animals with respect to that of plasma from control animals, the following results being obtained: […]

[8] = Per os absorbtion in rat, plasma levels; assay type: in vivo; conditions: for concentration at 0.5 h: 1/2 h; for absorbtion, times higher than that of picotamide monohydrate: rat per os
Excerpt: as §2
Per os absorbtion tests have been carried out in rat after a sole administration of 100 mg/Kg in gum acacia suspension. The determinations of the blood levels of the two substances at various times have been effected on plasma using a high pressure liquid phase chromotograph and indicated as γ/ml. The values referred hereinafter represent the average of 8 determinations: […]

[9] = test system: platelet aggregation induced with U46619; experiment: Blood platelet anti-aggregant activity in vitro on human PRP, U46619; assay type: cell-based; conditions: ten minutes incubation at 37° C., read-out: IC50 (50% decrease of maximum amplitude of aggregation curve)
Description: as §1

[10] = test system: platelet aggregation induced with AANa; experiment: Blood platelet anti-aggregant activity in vitro on human PRP, AANa; assay type: cell-based; conditions: ten minutes incubation at 37° C., read-out: IC50 (50% decrease of maximum amplitude of aggregation curve)
Description: as §1

[11] = test system: Blood platelet aggregation from AANa; experiment: Blood platelet anti-aggregate activity in vitro, arachidonic acid (AANa)-induced aggregation, rabbit PRP; assay type: cell-based; conditions: Oryctolagus cuniculus, 10 min, 10 minutes incubation at 37° C., read-out: IC50 (50% decrease of maximum amplitude of aggregation curve)
Excerpt: as §2, §3, §4

[12] = test system: platelet aggregation induced in PRP using ADP; experiment: Blood platelet anti-aggregant activity on human volounteers (ADP-induced aggregation in PRP); assay type: in vivo; conditions: 500 mg sole dose per os; for percent inhibition of the aggregation curve: ADP 2×10^-6 M
Description: On healthy human volounteers of both sexes aging from 31 to 53 the blood anti-aggregant activity was evaluated by per os treatment at a 500 mg sole dose, taking the blood samples before treatment and after 1-2-4-6 hours. The platelet aggregation was induced in PRP using ADP as aggregant agent at a concentration of 2×10^-6 M following the method illustrated in example 2. The platelet anti-aggregant activity reported in quantitative terms in the following table, was calculated as percent inhibition of the aggregation curve after treatment with respect to the […]

[13] = Acute toxicity (DL50), rat; conditions: in vivo, sole administration, seven days observation
Excerpt: as §2, §5

[14] = in vivo, po, rat, 100 mg/Kg per os, gum acacia suspension, average of 8 determinations, read-out: blood level (plasma)

| SMILES | IC50 [1] [µM] | IC50 [3] [µM] | IC50 [4] [µM] | LD50 at 168 h ([5]; iv) [mg/kg] | LD50 at 168 h ([5]; po, os) [mg/kg] | IC50 [6] [µM] | ED50 [7] [mg/kg] | concentration at 0.5 h [8, 14] [ng/mL] | concentration at 1 h [8, 14] [ng/mL] | concentration at 2 h [8, 14] [ng/mL] | IC50 [9] [µM] | IC50 [10] [µM] | IC50 [11] [µM] | maximum activity (platelet anti-aggregant) ([12]; ADP) | percent inhibition of the aggregation curve ([12]; 1 h) | percent inhibition of the aggregation curve ([12]; 2 h) | percent inhibition of the aggregation curve ([12]; 4 h) | percent inhibition of the aggregation curve ([12]; 6 h) | LD50 at 168 h ([13]; iv) [mg/kg] | LD50 at 168 h ([13]; po, os) [mg/kg] | other results |
| --- | --- | --- | --- | --- | --- | --- | --- | --- | --- | --- | --- | --- | --- | --- | --- | --- | --- | --- | --- | --- | --- |
| COc1ccc(C(=O)NCc2cccnc2)cc1C(=O)NCc1cccnc1 [Picotamide monohydrate, N-N'-bis-(3-picolyl)-4-methoxy-isophthalamide monohydrate, reference compound] | 10 | 820 | 930 | 275 | 3000 | 100 | 78 | 3400 | 1200 | 500 | 250 | 89 | 79 | 41,1% | 18,2% | 25,6% | 41,1% | 21,5% | 190 | 3000 | effect on production of 6-keto-PGFla (in words) ([2]; 10^-6 M): hardly efficient |
| COc1ccc(C(N)=O)cc1C(=O)NCc1cccnc1 [G 619, 3-carbamoyl(3'-picolyl)-4-methoxy-1-benzamide] | 4.6 | 56 | 125 | 400 | > 3000 | 11 | 25 | 26900 | 20200 | 9400 | 9.2 | 4.2 | 26.9 | 53,8% | 38,2% | 53,8% | 43,4% | 24,2% | 450 | > 3000 | activation at 1 µM ([2]; starting from concentrations of 10^-6 M, read-out: increase in the production of 6-keto-PGFla): 100 to 150%; power of action, factor higher with respect to picotamide ([3]; platelet aggregations induced in human PRP (ADP, collagen, AANa, U46619)): 10 factor; activity, times higher than that of picotamide monohydrate ([7]; rabbit in vivo, ID50): about 3 times; concentration at 4 h ([8]; in vivo, po, rat, 100 mg/Kg per os, gum acacia suspension, 4 h, average of 8 determinations, read-out: blood level (plasma)): 2100 ng/mL; absorbtion, times higher than that of picotamide monohydrate ([8]; 1/2 hour): 8 times; absorbtion, times higher than that of picotamide monohydrate ([8]; 2 hours): 19 times; time after treatment of maximum activity ([12]; ADP): two |
